# Experimental data as given in US12005050B2, “Methods for preventing or treating H. pylori infection” (TENNOR THERAPEUTICS (SUZHOU) LIMITED, priority 2022, dated 2024).
# Conditions: human, in vivo
# Protocol: The 40 patients were randomly allocated to four groups at a ratio of 1:1:1:1. […] The detection linear range was as below: • Compound I: Lower Limit Of Quantitation (LLOQ): 1.00 ng/mL; Upper Limit Of Quantitation (ULOQ): 1,000 ng/mL • Rabeprazole sodium: LLOQ: 2.00 ng/mL; […] […] Pharmacokinetics Evaluation Plasma drug concentrations of various groups at different time points were determined, including: arithmetic mean, standard deviation, minimum, median, maximum, geometric mean, coefficient of variation, and coefficient of geometric variation. The pharmacokinetic parameters calculated from the first and last administration were descriptively analyzed according to various trial groups, including: arithmetic mean, standard deviation, minimum value, median, maximum value, geometric mean, coefficient of variation, geometric coefficient of variation, etc. In addition, the accumulation index AUC0-tau, ss(D15)/AUC0-tau (D1) was calculated. […]
compound,measurement,value
"CO[C@H]1/C=C/O[C@@]2(C)Oc3c(C)c(O)c4c(c3C2=O)C2=NC3(CCN(CCn5c([N+](=O)[O-])cnc5C)CC3)NC2=C(NC(=O)/C(C)=C\C=C\[C@H](C)[C@H](O)[C@@H](C)[C@@H](O)[C@@H](C)[C@H](OC(C)=O)[C@@H]1C)C4=O [Compound I, 4-Deoxy-3,4-[2-spiro-[1-[2-(2-methyl-5-nitro-imidazol-1-yl)ethyl]-piperidin-4-yl]]-(1H)-imidazo-(2,5-dihydro)rifamycin]",Effect of rabeprazole and amoxicillin on the pharmacokinetic profile of Compound I,no significant effect
